Assay results published in paper PMC3985586, “Cratoxylum formosum (Jack) Dyer ssp. pruniflorum (Kurz) Gogel. (Hóng yá mù) extract induces apoptosis in human hepatocellular carcinoma HepG2 cells through caspase-dependent pathways” (Chinese Medicine, 2014).
In brackets after ≈: the same amount, converted by molar mass.

How the values were obtained:
HepG2 cells [1] = assay: Mitochondrial membrane potential (DiOC6, flow cytometry); assay type: cell-based, human; settings: HepG2, 35% (v/v) H2O2 positive control, 12 and 24 h, P < 0.001
Protocol: Cells (1 × 10^6 cells/mL) were seeded into a 24-well plate, incubated at 37°C for 24 h, and then treated with 0, 30, 60, or 120 μg/mL of CF extract for 12 or 24 h. Concentrated hydrogen peroxide (35%, v/v) was used as a positive control. Next, the cells were washed, harvested by trypsinization, transferred to a microcentrifuge tube, and stained with a lipophilic fluorogenic dye, DiOC6, at 40 nM for 30 min in the dark at 37°C. After the incubation, the cells were immediately analyzed by flow cytometry (BD FACSCanto II, San Jose, CA, USA) for incorporation of the fluorochrome.

HepG2 cells [2] = assay: Neutral red cytotoxicity assay, HepG2; assay type: cell-based, human
Protocol: (§1) Cell viability was measured by an NR colorimetric assay. Human HepG2 cells and normal African green monkey kidney Vero cells were used as cell models to determine the percent cytotoxicity. Briefly, cells (4 × 10^6 cells/mL) were treated with CF extract at various concentrations (10, 25, 50, 100, 250, and 500 μg/mL) and the standard anticancer drug melphalan as a positive control, while the untreated groups were exposed to fresh medium at equal volumes to those used for the treated groups. After 24 h of exposure, the cells were incubated for 2 h with NR dye (50 μg/mL) dissolved in DMEM, and then washed with phosphate-buffered saline (PBS; pH 7.4). Finally, the cells were lysed with 0.33% HCl/isopropanol. A microplate reader (Tecan, France) was used to measure the absorbances of NR dye in the viable cells at 520 and 650 (reference) nm. The percentage of cell cytotoxicity of the CF extract was calculated as described by Machana et al.[18] and compared with that of melphalan. The selectivity index (SI) was calculated to determine the selective cancer cell line cytotoxicity. The SI of the test compound was compared with the IC50 for the Vero cells divided by the IC50 for the HepG2 cells.

HepG2 cells [3] = assay: DAPI staining apoptosis induction assay; assay type: cell-based, human; settings: HepG2, 24 h, CF 120 μg/mL, melphalan 80 μg/mL (2 × IC50)
Protocol: Cells (1 × 10^6 cells/well) were treated with CF extract and the melphalan for 24 h at 2 × IC50, and the morphological changes of the induced apoptotic cells were determined by DAPI staining. The concentrations of CF extract and melphalan used in the following apoptosis experiments were 120 and 80 μg/mL, respectively. The cells were fixed in pure methanol at 4°C for 10 min, and then stained with DAPI (1 μg/mL) at room temperature in the dark. The excess dye was removed and glycerin was added to the cells with PBS at a 1:1 ratio and mixed well. Next, the cells were fixed on a slide and the apoptotic bodies observed at 40× objective magnification under an inverted fluorescence microscope (Eclipse TS100; Nikon, UK). The percentage of apoptotic cells was calculated as described by Machana et al.[18]. The average% apoptotic cells were calculated from three independent wells with 10 eye views in each well.

Vero cells = assay: Neutral red cytotoxicity assay, Vero; assay type: cell-based, African green monkey; settings: Chlorocebus sabaeus, 24 h, read-out: IC50 ± SD Vero
Protocol: as §1

| SMILES | Alteration of MMP compared to untreated cells (HepG2 cells [1]) | IC50 (HepG2 cells [2]; Homo sapiens, HepG2, 24 h, read-out: IC50 ± SD HepG2) [mg/L] | Selectivity index (SI) (HepG2 cells [2]; IC50 for Vero cells divided by IC50 for HepG2 cells, SI > 3 indicates high selectivity) | Percentage of apoptotic cells (HepG2 cells [3]) [%] | IC50 (Vero cells) [mg/L] |
| --- | --- | --- | --- | --- | --- |
| OO [H2O2, hydrogen peroxide] | significantly different |  |  |  |  |
| N[C@@H](Cc1ccc(N(CCCl)CCCl)cc1)C(=O)O [Melphalan, melphalan] |  | 37.7 ± 9.8 (≈ 124 µM) | 1.6 | 41.6 ± 2.1 | 59.9 ± 3.2 (≈ 196 µM) |
